Assay results reported in PMC7532339, “A cell-based large-scale screening of natural compounds for inhibitors of SARS-CoV-2” (Signal Transduction and Targeted Therapy, 2020).
Like-named read-outs stand apart in the source and are kept apart here.

Experiments:
Vero-E6 cells = assay: Cytotoxicity assay (CCK-8); assay type: cell-based; details: Vero-E6 cells, 48 h, CCK-8
Procedure: (§1) Vero-E6 cells were seeded in 96-well plates (1 × 10^4 cells per well) and allowed to grow for 24 h before treatment. Then, serial 2-fold dilutions of compounds were added to the cells. At 48 h, the cells were incubated with 10 μL CCK-8 reagent (cell counting kit-8, Bimake) for 1 h at 37 °C. The absorbance at 450 nm was read by a Microplate Reader (Varioskan Flash, Thermo Fisher). Cell viability was expressed as a percentage of the treated cells to the control (untreated) cells. For each compound concentration, three wells were performed in parallel, and the mean values of the cell viability were calculated.

SARS-CoV-2 [1] = assay: Antiviral assay (viral RNA in supernatant by qRT-PCR); assay type: cell-based, SARS-CoV-2 (WIV-04)
[2] = Cytotoxicity assay (CCK-8); assay type: cell-based; details: African green monkey
Procedure: as §1

SARS-CoV-2 [3] = assay: CPE-based HTS assay (CPE reduction quantified by CCK-8 cell viability); details: for inhibition at 10 µM: Severe acute respiratory syndrome coronavirus 2, Vero C1008, 48 h, read-out: protection from CPE; for protection against SARS-CoV-2 infection: known inhibitors used as positive controls
SARS-CoV-2 [4] = assay: Addition of sodium and potassium assay; assay type: cell-based, SARS-CoV-2 (WIV-04)
[5] = Severe acute respiratory syndrome coronavirus 2, Vero C1008
[6] = Vero-E6 cells, 48 h, CCK-8, read-out: CC50
[7] = Severe acute respiratory syndrome coronavirus 2, Vero C1008, read-out: EC50
[8] = primary screening, compound 10 µM, Vero-E6 cells, MOI 0.01, 48 hpi

Work on `C=C1C(=O)O[C@@H]2C[C@@]3(C)CCC[C@H](C)C3=C[C@H]12` [Alantolactone] yielded a CC50 (Vero-E6 cells) of 36.7 µM and an EC50 (SARS-CoV-2 [1]; read-out: EC50) of 1.72 µM.

`COC(=O)[C@@]12OC[C@]34[C@H]([C@@H](O)[C@@H]1O)[C@@]1(C)CC(=O)C(O)=C(C)[C@@H]1C[C@H]3OC(=O)[C@H](OC(=O)CC(C)C)[C@@H]24` [Bruceine A] gave a CC50 at 48 h [2] of 31.4 µM and an EC50 (SARS-CoV-2 [1]; [5]) of 0.011 µM.

In the case of `C[C@]12CC[C@H](O)C[C@H]1CC[C@@H]1[C@@H]2CC[C@]2(C)[C@@H](c3ccc(=O)oc3)CC[C@]12O` [Bufalin], the inhibition at 10 µM (SARS-CoV-2 [3]) is reported as > 50%, the CC50 at 48 h [2, 6] is reported as > 40 µM and the EC50 (SARS-CoV-2 [1]; [7]) is reported as 0.018 µM. The “inhibitory effect on SARS-CoV-2 with added extracellular KCl” value (SARS-CoV-2 [4]) was “suppressed by KCl” and the “inhibitory effect on SARS-CoV-2 with added extracellular NaCl” value (SARS-CoV-2 [4]) was “enhanced by NaCl”.

For `CC(=O)O[C@H]1C[C@]2(O)[C@@H]3CC[C@@H]4C[C@@H](O)CC[C@]4(C)[C@H]3CC[C@]2(C)[C@H]1c1ccc(=O)oc1` [Bufotaline], the CC50 (Vero-E6 cells) was > 40 µM and the EC50 (SARS-CoV-2 [1]; read-out: EC50) was 0.0259 µM.

For `CC(=O)O[C@H]1[C@H]2O[C@]23[C@@H]2CC[C@@H]4C[C@@H](O)CC[C@]4(C)[C@H]2CC[C@]3(C)[C@H]1c1ccc(=O)oc1` [Cinobufagin], the CC50 at 48 h [2, 6] was > 40 µM and the EC50 (SARS-CoV-2 [1]; [7]) was 0.018 µM.

With `COc1cc(/C=C/C=O)ccc1O` [Coniferylaldehyde] the CC50 at 48 h [2] was > 40 µM and the EC50 (SARS-CoV-2 [1]; [5]) was 11 µM.

In the case of `C=C[C@H]1[C@H](O[C@@H]2O[C@H](CO)[C@@H](O)[C@H](O)[C@H]2O)OC=C(C(=O)OC)[C@H]1CCOC(=O)c1cc(O)c(O)c(O)c1` [Cornuside], the CC50 (Vero-E6 cells) is reported as > 40 µM and the EC50 (SARS-CoV-2 [1]; read-out: EC50) is reported as 5.26 µM.

For `C[C@H]1COC2=C1C(=O)C(=O)c1c2ccc2c1CCCC2(C)C` [Cryptotanshinone], the inhibition at 10 µM (SARS-CoV-2 [3]) was > 50%, the CC50 at 48 h [2, 6] was > 100 µM and the EC50 (SARS-CoV-2 [1]; [7]) was 5.02 µM.

`C=C1CC[C@H]2C(=C)CC[C@H]3C(=C)C(=O)O[C@@H]3[C@@H]12` [Dehydrocostus lactone] showed a CC50 at 48 h [2] of 36.2 µM and an EC50 (SARS-CoV-2 [1]; [7]) of 2.32 µM.

In the case of `C/C=C/c1cc(OC)c2c(c1)C(C)C(c1ccc(O)c(OC)c1)O2` (centres unmarked) [Dehydrodiisoeugenol], the CC50 (Vero-E6 cells) is reported as > 100 µM and the EC50 (SARS-CoV-2 [1]; read-out: EC50) is reported as 10.3 µM.

In the case of `C[C@H]1O[C@@H](O[C@H]2[C@@H](O)C[C@H](O[C@H]3[C@@H](O)C[C@H](O[C@H]4CC[C@@]5(C)[C@H](CC[C@@H]6[C@@H]5C[C@@H](O)[C@]5(C)[C@@H](C7=CC(=O)OC7)CC[C@]65O)C4)O[C@@H]3C)O[C@@H]2C)C[C@H](O)[C@@H]1O` [Digoxin, reference compound], the inhibition at 10 µM (SARS-CoV-2 [3]) is reported as > 50%, the CC50 at 48 h [2, 6] is reported as > 40 µM and the EC50 (SARS-CoV-2 [1]; [7]) is reported as 0.154 µM.

For `C=C1C(=O)O[C@@H]2C[C@@]3(C)CCCC(=C)[C@@H]3C[C@H]12` [Isoalantolactone], the CC50 at 48 h [2, 6] was > 40 µM and the EC50 (SARS-CoV-2 [1]; [7]) was 1.48 µM.

In the case of `COc1ccc(C[C@@H]2c3cc(Oc4cc(C[C@@H]5c6cc(O)c(OC)cc6CCN5C)ccc4O)c(OC)cc3CCN2C)cc1` [Isoliensinine], the CC50 at 48 h [2] is reported as 40 µM and the EC50 (SARS-CoV-2 [1]; [7]) is reported as 1.61 µM.

`COc1cc2c(cc1OC)[C@@H](Cc1ccc(O)c(Oc3cc4c(cc3OC)CCN(C)[C@@H]4Cc3ccc(O)cc3)c1)N(C)CC2` [Liensinine] showed a CC50 (Vero-E6 cells) of 25.4 µM and an EC50 (SARS-CoV-2 [1]; read-out: EC50) of 2.54 µM.

With `CC1(C)CC[C@]2(C(=O)O)CC[C@]3(C)C(=CC[C@@H]4[C@@]5(C)CC[C@H](O[C@@H]6O[C@H](C(=O)O)[C@@H](O)[C@H](O[C@@H]7OC[C@@H](O)[C@H](O)[C@H]7O)[C@H]6O)C(C)(C)[C@@H]5CC[C@]43C)[C@@H]2C1` [Momordinic] the CC50 (Vero-E6 cells) was > 40 µM and the EC50 (SARS-CoV-2 [1]; read-out: EC50) was 3.53 µM.

In the case of `C=C1C(=O)[C@]23[C@H](O)[C@H]1CC[C@H]2[C@@]12CO[C@]3(O)[C@@H](O)[C@@H]1C(C)(C)CC[C@@H]2O` [Oridonin], the CC50 at 48 h [2] is reported as > 40 µM and the EC50 (SARS-CoV-2 [1]; [7]) is reported as 1.46 µM.

In the case of `CO[C@H]1C[C@H](O[C@H]2CC[C@]3(C)[C@H]4CC[C@]5(C)[C@@H](C6=CC(=O)OC6)CC[C@]5(O)[C@@H]4CC[C@]3(O)C2)O[C@H](C)[C@H]1O[C@@H]1O[C@H](CO)[C@@H](O)[C@H](O)[C@H]1O` [Periplocoside], the CC50 (Vero-E6 cells) is reported as > 40 µM and the EC50 (SARS-CoV-2 [1]; read-out: EC50) is reported as 0.0657 µM.

With `C=C(C)[C@@H]1CC[C@]2(C)[C@H](CC=C3[C@@H]4[C@@H](C)[C@H](C)CC[C@]4(C)CC[C@]32C)[C@@]1(C)CCC(=O)O` [Roburicacid] the CC50 (Vero-E6 cells) was > 40 µM and the EC50 (SARS-CoV-2 [1]; read-out: EC50) was 5.27 µM.

In the case of `COc1ccc(C(=O)O[C@H]2CC[C@@]3(C)[C@@H]4CC[C@H]5[C@]6(O)C[C@H](O)[C@@]7(O)[C@@H](CN8C[C@@H](C)CC[C@H]8[C@@]7(C)O)[C@]6(O)C[C@@]53O[C@]24O)cc1OC` [Veratridine], the CC50 at 48 h [2, 6] is reported as > 100 µM and the EC50 (SARS-CoV-2 [1]; [7]) is reported as 2.38 µM.

For `CC(C)=CCc1cc2c(cc1O)O[C@H](c1ccc(O)cc1)CC2=O` [bavachin], the inhibition at 10 µM (SARS-CoV-2 [3]; [8]) was > 50%.

With `COc1ccc2cc1Oc1ccc(cc1)C[C@H]1c3c(cc4c(c3Oc3cc5c(cc3OC)CCN(C)[C@@H]5C2)OCO4)CCN1C` [cepharanthine] the inhibition at 10 µM (SARS-CoV-2 [3]) was > 50%.

For `CCN(CC)CCCC(C)Nc1ccnc2cc(Cl)ccc12` (centres unmarked) [chloroquine, reference compound], the EC50 (SARS-CoV-2 [3]; Severe acute respiratory syndrome coronavirus 2, Vero C1008, Vero-E6 cells, MOI 0.01, 48 hpi, CCK-8, read-out: EC50 (inhibition of CPE)) was 2.65 µM, the “protection against SARS-CoV-2 infection” value (SARS-CoV-2 [3]; Vero-E6 cells, MOI 0.01, 48 h) was “provided protection” and the EC50 (SARS-CoV-2 [1]; Severe acute respiratory syndrome coronavirus 2, Vero C1008, 48 h, read-out: EC50 determined by viral RNA copies) was 1.78 µM.

For `COc1ccc2cc1Oc1ccc(cc1)C[C@H]1c3cc(c(OC)cc3CCN1C)Oc1c(O)c(OC)cc3c1[C@H](C2)N(C)CC3` [fangchinoline], the inhibition at 10 µM (SARS-CoV-2 [3]) was > 50%.

In the case of `CC(C)=CCc1c(O)ccc(C(=O)/C=C/c2ccc(O)cc2)c1O` [isobavachalcone], the inhibition at 10 µM (SARS-CoV-2 [3]; [8]) is reported as > 50%.

For `O[C@H]1[C@H]2c3cc4c(cc3CN3CCC(=C[C@@H]1O)[C@H]23)OCO4` [lycorine], the inhibition at 10 µM (SARS-CoV-2 [3]) was > 50%.

With `CC(C)=CCc1cc2c(cc1O)oc(=O)c1c3ccc(O)cc3oc21` [psoralidin] the “protection from CPE” value (SARS-CoV-2 [3]) was > 50%.

For `CCC(CC)COC(=O)[C@H](C)N[P@](=O)(OC[C@H]1O[C@@](C#N)(c2ccc3c(N)ncnn23)[C@H](O)[C@@H]1O)Oc1ccccc1` [remdesivir, reference compound], the “protection against SARS-CoV-2 infection” value (SARS-CoV-2 [3]; Vero-E6 cells, MOI 0.01, 48 h) was “provided protection”.

With `COC(=O)[C@H]1[C@H]2C[C@@H]3c4[nH]c5cc(OC)ccc5c4CCN3C[C@H]2C[C@@H](OC(=O)c2cc(OC)c(OC)c(OC)c2)[C@@H]1OC` [reserpine, reference compound] the inhibition at 10 µM (SARS-CoV-2 [3]; [8]) was > 50%.

For `Cc1coc2c1C(=O)C(=O)c1c-2ccc2c1CCCC2(C)C` [tanshinone IIA], the inhibition at 10 µM (SARS-CoV-2 [3]; [8]) was > 50%.

For `COc1ccc2cc1Oc1ccc(cc1)C[C@H]1c3cc(c(OC)cc3CCN1C)Oc1c(OC)c(OC)cc3c1[C@H](C2)N(C)CC3` [tetrandrine], the inhibition at 10 µM (SARS-CoV-2 [3]; [8]) was > 50%.

Brusatol showed an EC50 (SARS-CoV-2 [1]; read-out: EC50) of 0.0492 µM.

With CB6: neutralizing human antibody CB6 the “protection against SARS-CoV-2 infection” value (SARS-CoV-2 [3]; […]) was “provided protection”.

With IFN-α the “protection against SARS-CoV-2 infection” value (SARS-CoV-2 [3]; […]) was “provided protection”.
